# Measured values taken from US5378690A, “New renin-inhibitory oligopeptides, their preparation and their use” (Sankyo Company, Limited, priority 1986, dated 1995).
# Target: T1, human renin (Homo sapiens, UniProt P00797)
# T1 sequence (P00797 67-406): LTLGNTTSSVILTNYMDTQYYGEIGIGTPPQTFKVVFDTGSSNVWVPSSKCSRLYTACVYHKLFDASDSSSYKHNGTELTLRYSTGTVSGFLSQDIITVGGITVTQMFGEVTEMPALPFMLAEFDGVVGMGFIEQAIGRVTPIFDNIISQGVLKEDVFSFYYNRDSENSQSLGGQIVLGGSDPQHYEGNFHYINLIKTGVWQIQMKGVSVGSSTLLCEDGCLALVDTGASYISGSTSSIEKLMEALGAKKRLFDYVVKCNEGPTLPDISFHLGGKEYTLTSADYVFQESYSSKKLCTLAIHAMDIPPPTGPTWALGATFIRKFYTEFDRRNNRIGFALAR
# Test: Inhibition of renin activity
# Type: biochemical
# Conditions: 1×10^-6 M of the test compound, sheep angiotensinogen, pH 7.3, 10 minutes at 37° C., mean of 3 or 4 experiments
# Procedure: The ability of various compounds of the invention to inhibit the activity of renin was determined according to the following method, which follows essentially the procedure of Kokubu et al. [Hypertension, 5, 191-197 (1983)].
# Specifically, each test compound was dissolved in 60% v/v aqueous ethanol. Human renin activity in the presence and absence of each compound was measured using sheep angiotensinogen. The total volume of 1 ml of assay mixture contained 0.1 mole/litre phosphate buffer (pH 7.3), human renin (equivalent to 0.5 ng angiotensin I per ml per minute), sheep angiotensinogen (equivalent to 200 ng angiotensin I) 1×10^-6 M of the test compound, 6% v/v ethanol and angiotensinase inhibitors (10 mmole/litre sodium ethylenediaminetetraacetate and 3.4 mmole/litre 8-hydroxyquinoline). The mixture was allowed to react for 10 minutes at 37° C., and then the reaction was stopped by placing the reaction tube in a boiling water bath for 5 minutes. The mixture was then centrifuged and the supernatant (0.05-0.1 ml) was used to assay remaining angiotensin I.
# An identical experiment was carried out, as a control, except that the test compound was omitted. From the values obtained were calculated the % inhibition of renin activity achieved by each test compound. The results are shown in the following Table 9, in which the compounds of the invention are identified by the numbers of the Examples given hereafter in which are described their preparation. The values given are the mean of 3 or 4 experiments.
row,Structure (SMILES),Inhibitory Activity (%)
1,"O=C(C[C@H](O)[C@H](CC1CCCCC1)NC(=O)C(Cc1cscn1)NC(=O)[C@@H](CC(=O)N1CCOCC1)Cc1cccc2ccccc12)NCCN1CCOCC1 (mixture of isomers) [Example 2, N-{N-[(2R)-3-Morpholinocarbonyl-2-(1-naphthylmethyl)propionyl]-3-(4-thiazolyl)-DL-alanyl}-cyclostatin-(2-morpholinoethyl)amide]",91.2
2,"CC1CN(C(=O)C[C@@H](Cc2cccc3ccccc23)C(=O)NC(Cc2cscn2)C(=O)N[C@@H](CC2CCCCC2)[C@@H](O)CC(=O)NCCN2CCOCC2)CC(C)O1 (mixture of isomers) [Example 8, N-{N-[(2R)-2-(1-Naphthylmethyl)-3-(2,6-dimethylmorpholinocarbocyl)propionyl]-3-(4-thiazolyl)-DL-alanyl}-cyclostatin-(2-morpholinoethyl)amide]",96.5
3,"O=C(C[C@H](O)[C@H](CC1CCCCC1)NC(=O)C(Cc1cscn1)NC(=O)[C@@H](CC(=O)N1CCCCC1)Cc1cccc2ccccc12)NCCN1CCOCC1 (mixture of isomers) [Example 11, N-{N-[(2R)-2-(1-Naphthylmethyl)-3-(piperidinocarbonyl)propionyl]-3-(4-thiazolyl)-DL-alanyl}-cyclostatin-(2-morpholinoethyl)amide]",96.9
4,"O=C(C[C@H](O)[C@H](CC1CCCCC1)NC(=O)C(Cc1cscn1)NC(=O)[C@@H](CC(=O)N1CCN(c2ccccc2)CC1)Cc1cccc2ccccc12)NCCN1CCOCC1 (mixture of isomers) [Example 15, N-{N-[(2R)-2-(1-Naphthylmethyl)-3-(4-phenyl-1-piperazinylcarbonyl)propionyl]-3-(4-thiazolyl)-DL-alanyl}-cyclostatin-(2-morpholinoethyl)amide]",96.3
5,"O=C(C[C@H](O)[C@H](CC1CCCCC1)NC(=O)C(Cc1cscn1)NC(=O)[C@H](Cc1cccc2ccccc12)NC(=O)CCCN1CCOCC1)NCCN1CCOCC1 (mixture of isomers) [Example 42, N-55 N-[N-(4-Morpholinobutyryl)-3-(1-naphthyl -L-alanyl]-3-(4-thiazolyl)-DL-alanyl}-cyclostatin-(2-morpholinoethyl)amide]",96.7
6,"O=C(C[C@H](O)[C@H](CC1CCCCC1)NC(=O)C(Cc1cscn1)NC(=O)[C@H](Cc1cccc2ccccc12)NC(=O)CN1CCOCC1)NCCN1CCCC1 (mixture of isomers) [Example 43, N-{N-[N-Morpholinoacetyl-3-(1-naphthyl)-L-alanyl]-(4-thiazolyl)-DL-alanyl]-cyclostatin-2-(1-pyrrolidinylethyl)amide]",91.2
7,CCC(C)CNC(=O)C[C@H](O)[C@H](CC1CCCCC1)NC(=O)[C@H](Cc1cscn1)NC(=O)[C@H](Cc1cccc2ccccc12)NC(=O)CN1CCOCC1 (mixture of isomers) [Example 109],98.3
8,"O=C(C[C@H](O)[C@H](CC1CCCCC1)NC(=O)[C@H](Cc1ccno1)NC(=O)[C@@H](CC(=O)N1CCOCC1)Cc1cccc2ccccc12)NCCN1CCOCC1 [Example 3, N-{N-[(2R)-3-Morpholinocarbonyl-2-(1-naphthylmethyl)propionyl]-3-(5-isoxazolyl)-L-alanyl}-cyclostatin-(2-morpholinoethyl)amide]",92.2
9,"O=C(C[C@@H](Cc1cccc2ccccc12)C(=O)N[C@@H](Cc1cscn1)C(=O)N[C@@H](CC1CCCCC1)[C@@H](O)CC(=O)NCCN1CCOCC1)NCCc1ccccc1 [Example 13, N-{N-[(2R)-2-(1-Naphthylmethyl)-3-(phenethylcarbamoyl)propionyl]-3-(4-thiazolyl)-L-alanyl}-cyclostatin-(2-morpholinoethyl)amide]",96.6
10,CCC(C)[C@@H](CO)NC(=O)C[C@H](O)[C@H](CC1CCCCC1)NC(=O)[C@H](Cc1cscn1)NC(=O)[C@@H](CC(=O)N1CCOCC1)Cc1cccc2ccccc12 (stereo partly shown) [Example 31],98.2
